Test results taken from patent publication US7351709B2, “Estrogen receptor ligands” (Wyeth, priority 2004, dated 2008).
Read-outs that look alike come from different tables or passages of the source.

Columns and labels:
[1] = biological target: T1, ERα (Homo sapiens, UniProt P03372); assay: Creatine kinase (CK) assay in ERα infected HAECT-1 cells; type: cell-based; conditions: for ER/CK % E2: efficacy relative to the maximal stimulation observed with E2
T1 construct: expressed in transfected cells; host or cells: HAECT-1 cells infected with Ad5-wt-ER adenovirus
T1 sequence (P03372 1-595): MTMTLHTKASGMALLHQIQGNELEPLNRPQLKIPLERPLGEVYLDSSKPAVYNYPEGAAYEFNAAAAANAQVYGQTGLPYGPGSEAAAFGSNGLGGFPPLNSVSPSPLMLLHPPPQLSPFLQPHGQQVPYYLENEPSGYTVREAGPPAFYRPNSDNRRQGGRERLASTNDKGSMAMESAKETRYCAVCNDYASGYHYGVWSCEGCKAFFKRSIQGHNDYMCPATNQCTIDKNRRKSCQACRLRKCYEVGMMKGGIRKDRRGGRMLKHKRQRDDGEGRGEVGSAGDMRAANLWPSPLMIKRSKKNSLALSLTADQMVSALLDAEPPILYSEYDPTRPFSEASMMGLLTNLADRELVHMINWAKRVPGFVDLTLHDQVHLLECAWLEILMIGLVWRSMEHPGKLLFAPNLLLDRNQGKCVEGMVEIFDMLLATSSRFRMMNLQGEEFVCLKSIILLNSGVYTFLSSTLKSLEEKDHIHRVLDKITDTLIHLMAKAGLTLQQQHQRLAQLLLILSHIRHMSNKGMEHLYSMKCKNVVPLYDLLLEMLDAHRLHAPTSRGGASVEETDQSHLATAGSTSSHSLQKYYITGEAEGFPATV
Description: (§1) ERα infected HAECT-1 cells or control cells were thawed, diluted 42× in warm EBM-BSA, plated into 96-well plates at 0.1 ml/well and incubated for 4 h at 34° C. Test compounds were added to the cells as 2× stocks in EBM-BSA containing 2 ng/ml IL-1β (R&D Systems) and plates were returned to the incubator (34° C.). After 15-20 h, 100 μl aliquots of media were removed from the cells and assayed for IL-6 content using a BioSource human IL-6 ELISA Kit. Cells were subsequently washed with 300 μl of Dulbecco's phosphate buffered saline and lysed in 50 μl of Cell Culture Lysis Reagent (Promega). Creatine kinase was determined from the rate of increase in A340 following addition of 100 μl of CK assay reagent (Sigma, cat. No 47-10) to the remainder of the cell lysate.
(§2) For IC50 and EC50 calculations, mean IL-6 or CK values versus log10 of the compound concentration were fitted to a four parameter logistic equation. The IC50/EC50 value, ‘Hill slope’, upper and lower limits of the curve were iteratively estimated.

[2] = biological target: T1, ERα; assay: IL-6 assay: inhibition of IL-1β induced IL-6 expression in ERα infected HAECT-1 cells; type: cell-based; conditions: for IC50: Ad5-wt-ER infected HAECT-1 cells, IL-1β stimulated, IL-6 by ELISA; for ER/IL-6 % E2: efficacy relative to the maximal inhibition observed with E2
Description: as §1, §2

[3] = Ad5-wt-ER infected HAECT-1 cells, creatine kinase in cell lysate

| SMILES | EC50 [1, 3] | ER/CK % E2 [1] | IC50 [2] | ER/IL-6 % E2 [2] | EC50 ([1]; cells of the EC50 column printed in uM, read-out: ER/CK EC50) |
| --- | --- | --- | --- | --- | --- |
| CC[C@@H]1C(=O)N(C)c2cc(F)ccc2N1C(=O)c1ccc(O)cc1 [Example 1, (3R)-3-Ethyl-7-fluoro-4-(4-hydroxybenzoyl)-1-methyl-3,4-dihydroquinoxalin-2(1H)-one] | 0.089 µM | 16 % E2 | 74 nM | 99 % E2 | – |
| CC[C@H]1C(=O)N(CC)c2ccc(F)cc2N1C(=O)c1ccc(O)cc1 [Example 6, (3S)-1,3-Diethyl-6-fluoro-4-(4-hydroxybenzoyl)-3,4-dihydroquinoxalin-2(1H)-one] | – | – | 285 nM | 44 % E2 | – |
| CC[C@H]1C(=O)N(C)c2ccc(F)cc2N1C(=O)c1ccc(O)cc1 [Example 7, (3S)-3-Ethyl-6-fluoro-4-(4-hydroxybenzoyl)-1-methyl-3,4-dihydroquinoxalin-2(1H)-one] | – | – | 303 nM | 44 % E2 | – |
| CC[C@@H]1C(=O)N(CC)c2ccc(F)cc2N1C(=O)c1ccc(O)cc1 [Example 8, (3R)-1,3-Diethyl-6-fluoro-4-(4-hydroxybenzoyl)-3,4-dihydroquinoxalin-2(1H)-one] | – | – | 139 nM | 99 % E2 | – |
| CCCN1C(=O)[C@@H](CC)N(C(=O)c2ccc(O)cc2)c2cc(F)ccc21 [Example 9, (3R)-3-Ethyl-6-fluoro-4-(4-hydroxybenzoyl)-1-propyl-3,4-dihydroquinoxalin-2(1H)-one] | – | – | 222 nM | 96 % E2 | – |
| C=CCN1C(=O)[C@@H](CC)N(C(=O)c2ccc(O)cc2)c2cc(F)ccc21 [Example 10, (3R)-1-Allyl-3-ethyl-6-fluoro-4-(4-hydroxybenzoyl)-3,4-dihydroquinoxalin-2(1H)-one] | – | – | 57 nM | 95 % E2 | – |
| CCCCN1C(=O)[C@@H](CC)N(C(=O)c2ccc(O)cc2)c2cc(F)ccc21 [Example 12, (3R)-1-Butyl-3-ethyl-6-fluoro-4-(4-hydroxybenzoyl)-3,4-dihydroquinoxalin-2(1H)-one] | – | – | 52 nM | 95 % E2 | – |
| CCCCCN1C(=O)[C@@H](CC)N(C(=O)c2ccc(O)cc2)c2cc(F)ccc21 [Example 13, (3R)-3-Ethyl-6-fluoro-4-(4-hydroxybenzoyl)-1-pentyl-3,4-dihydroquinoxalin-2(1H)-one] | – | – | 89 nM | 102 % E2 | – |
| CC[C@@H]1C(=O)N(CC(F)(F)F)c2ccc(F)cc2N1C(=O)c1ccc(O)cc1 [Example 16, (3R)-3-Ethyl-6-fluoro-4-(4-hydroxybenzoyl)-1-(2,2,2-trifluoroethyl)-3,4-dihydroquinoxalin-2(1H)-one] | – | – | 204 nM | 83 % E2 | – |
| CC[C@@H]1C(=O)N(C2CCCC2)c2ccc(F)cc2N1C(=O)c1ccc(O)cc1 [Example 17, (3R)-1-Cyclopentyl-3-ethyl-6-fluoro-4-(4-hydroxybenzoyl)-3,4-dihydroquinoxalin-2(1H)-one] | – | – | 445 nM | 96 % E2 | – |
| CCCN1C(=O)[C@H](CC)N(S(=O)(=O)c2ccc(O)cc2)c2cc(F)ccc21 [Example 20, (3S)-3-Ethyl-6-fluoro-4-[(4-hydroxyphenyl)sulfonyl]-1-propyl-3,4-dihydroquinoxalin-2(1H)-one] | – | – | 157 nM | 79 % E2 | – |
| CCN1C(=O)[C@H](C)N(S(=O)(=O)c2ccc(O)cc2)c2cc(F)ccc21 [Example 21, (3S)-1-Ethyl-6-fluoro-4-[(4-hydroxyphenyl)sulfonyl]-3-methyl-3,4-dihydroquinoxalin-2(1H)-one] | – | – | 181 nM | 56 % E2 | – |
| C=CCN1C(=O)[C@H](CC)N(S(=O)(=O)c2ccc(O)cc2)c2cc(F)ccc21 [Example 22, (3S)-1-Allyl-3-ethyl-6-fluoro-4-[(4-hydroxyphenyl)sulfonyl]-3,4-dihydroquinoxalin-2(1H)-one] | – | – | 5600 nM | 55 % E2 | – |
| CCCCN1C(=O)[C@H](CC)N(S(=O)(=O)c2ccc(O)cc2)c2cc(F)ccc21 [Example 23, (3S)-1-Butyl-3-ethyl-6-fluoro-4-[(4-hydroxyphenyl)sulfonyl]-3,4-dihydroquinoxalin-2(1H)-one] | – | – | 313 nM | 106 % E2 | – |
| CC[C@H]1C(=O)N(Cc2ccccc2)c2ccc(F)cc2N1S(=O)(=O)c1ccc(O)cc1 [Example 24, (3S)-1-benzyl-3-ethyl-6-fluoro-4-[(4-hydroxyphenyl)sulfonyl]-3,4-dihydroquinoxalin-2(1H)-one] | – | – | 534 nM | 40 % E2 | – |
| CC[C@H]1C(=O)N(C)c2cc(Br)ccc2N1S(=O)(=O)c1ccc(O)cc1 [Example 32, (3S)-7-bromo-3-ethyl-4-[(4-hydroxyphenyl)sulfonyl]-1-methyl-3,4-dihydroquinoxalin-2(1H)-one] | – | – | 429 nM | 90 % E2 | – |
| CC[C@H]1C(=O)N(C)c2ccc(Br)cc2N1S(=O)(=O)c1ccc(O)cc1 [Example 34, (3S)-6-bromo-3-ethyl-4-[(4-hydroxyphenyl)sulfonyl]-1-methyl-3,4-dihydroquinoxalin-2(1H)-one] | – | – | 258 nM | 128 % E2 | – |

The remaining compounds from weak to strong by IC50 [2], led by results:

| EC50 [1, 3] | ER/CK % E2 [1] | IC50 [2] | ER/IL-6 % E2 [2] | EC50 ([1]; cells of the EC50 column printed in uM, read-out: ER/CK EC50) | SMILES |
| --- | --- | --- | --- | --- | --- |
| – | – | 1570 nM | 71 % E2 | – | CC[C@H]1C(=O)N(CC)c2cc(Br)ccc2N1S(=O)(=O)c1ccc(O)cc1 [Example 31, (3S)-7-Bromo-1,3-diethyl-4-[(4-hydroxyphenyl)sulfonyl]-3,4-dihydroquinoxalin-2(1H)-one] |
| – | 24 % E2 | 1230 nM | 80 % E2 | > 10 µM | CC[C@@H]1C(=O)N(Cc2ccccc2)c2cc(F)ccc2N1C(=O)c1ccc(O)cc1 [Example 2, (3R)-1-Benzyl-3-Ethyl-7-fluoro-4-(4-hydroxybenzoyl)-3,4-dihydroquinoxalin-2(1H)-one] |
| 0.255 µM | 17 % E2 | 542 nM | 65 % E2 | – | CC[C@@H]1C(=O)N(Cc2ccccc2)c2cc(F)ccc2N1C(=O)c1cccc(O)c1 [Example 5, (3R)-1-Benzyl-3-ethyl-7-fluoro-4-(3-hydroxybenzoyl)-3,4-dihydroquinoxalin-2(1H)-one] |
| 0.126 µM | 19 % E2 | 520 nM | 57 % E2 | – | CC[C@@H]1C(=O)N(C)c2cc(F)ccc2N1C(=O)c1cccc(O)c1 [Example 4, (3R)-3-Ethyl-7-fluoro-4-(3-hydroxybenzoyl)-1-methyl-3,4-dihydroquinoxalin-2(1H)-one] |
| – | – | 447 nM | 63 % E2 | – | CC[C@H]1C(=O)N(CC)c2ccc(C)cc2N1S(=O)(=O)c1ccc(O)cc1 [Example 27, (3S)-1,3-diethyl-4-[(4-hydroxyphenyl)sulfonyl]-6-methyl-3,4-dihydroquinoxalin-2(1H)-one] |
| – | – | 413 nM | 92 % E2 | – | CC[C@H]1C(=O)N(CC)c2ccc(Br)cc2N1S(=O)(=O)c1ccc(O)cc1 [Example 33, (3S)-6-bromo-1,3-diethyl-4-[(4-hydroxyphenyl)sulfonyl]-3,4-dihydroquinoxalin-2(1H)-one] |
| – | – | 296 nM | 92 % E2 | – | CC[C@H]1C(=O)N(C)c2ccc(C)cc2N1S(=O)(=O)c1ccc(O)cc1 [Example 28, (3S)-3-Ethyl-4-[(4-hydroxyphenyl)sulfonyl]-1,6-dimethyl-3,4-dihydroquinoxalin-2(1H)-one] |
| – | – | 262 nM | 87 % E2 | – | CC[C@@H]1C(=O)N(CC(C)C)c2ccc(F)cc2N1C(=O)c1ccc(O)cc1 [Example 14, (3R)-3-Ethyl-6-fluoro-4-(4-hydroxybenzoyl)-1-isobutyl-3,4-dihydroquinoxalin-2(1H)-one] |
| – | – | 105 nM | 91 % E2 | – | CC[C@@H]1C(=O)N(C(C)C)c2ccc(F)cc2N1C(=O)c1ccc(O)cc1 [Example 11, (3R)-3-Ethyl-6-fluoro-4-(4-hydroxybenzoyl)-1-isopropyl-3,4-dihydroquinoxalin-2(1H)-one] |
| – | – | 102 nM | 84 % E2 | – | CC[C@@H]1C(=O)N(C)c2ccc(F)cc2N1C(=O)c1ccc(O)cc1 [Example 15, (3R)-3-Ethyl-6-fluoro-4-(4-hydroxybenzoyl)-1-methyl-3,4-dihydroquinoxalin-2(1H)-one] |
| 0.103 µM | 29 % E2 | 72 nM | 104 % E2 | – | CC[C@@H]1C(=O)N(CC)c2cc(F)ccc2N1C(=O)c1ccc(O)cc1 [Example 3, (3R)-1,3-Diethyl-7-fluoro-4-(4-hydroxybenzoyl)-3,4-dihydroquinoxalin-2(1H)-one] |
